In PMC10382584, “Macrocyclization of linear molecules by deep learning to facilitate macrocyclic drug candidates discovery” (Nature Communications, 2023):
Values joined by “and” are separate entries in the source; they are usually repeats but may differ in a detail not shown here. Equal values may be shown once. Read-outs that look alike come from different tables or passages of the source.

Columns and labels:
HEL cells = experiment: Cell proliferation assay (CCK-8), HEL cells; format: cell-based, human; conditions: for Inhibition (%): single wells, replicates 1 and 2
SET-2 cells = experiment: Cell proliferation assay (CCK-8), SET-2 cells; format: cell-based, human
[1] = system: JAK2-STAT signaling pathways in HEL cells; experiment: Western blot analysis of JAK2-STAT signaling in HEL cells; format: cell-based, human; conditions: 0.3-10 μM, 0.5 h
Description: HEL cells were added into six-well plates (2 × 10^6 cells/well) and then put into the incubator (37 °C, 5% CO2). After 24 h, the tested compounds were diluted in RPMI-1640 medium (final DMSO concentration = 0.1%) with different concentrations (0 μM, 0.3 μM, 1 μM, 3 μM, and 10 μM) was added separately into the wells, and incubated for another 0.5 h, then cells were collected and lysed. Proteins from each sample were isolated by SDS-PAGE and transferred to PVDF membrane. The membranes were blocked in 5% milk (TBST) for 1 h at room temperature, and subsequently incubated with the indicated primary antibody in blocking buffer overnight at 4 °C. Primary antibodies were used as follows: p-Y1007/8-JAK2 (#3771, CST, 1:1000), p-Y221-JAK2 (#11150, SAB, 1:500), p-Y705-STAT3 (#11045, SAB, 1:1000), p-Y694-STAT5 (#13386, SAB, 1:2000), STAT3 (10253-2-AP, Proteintech, 1:4000), STAT5 (12071-1-AP, Proteintech, 1:4000), JAK2 (E-AB-70193, Elabscience, 1:2000) and β-Actin (E-AB-20034, Elabscience, 1:10000). Then the membranes were washed with TBST (3 × 5 min), incubated with HRP-conjugated secondary antibody for 1 h at room temperature, washed again, and then exposed by chemiluminescence method using the enhanced ECL immunoblotting system (Tanon, Shanghai, China). All the experiments were repeated in triplicate. Blot bands were quantified by densitometry using Image J software v1.51.

DSS-induced colitis mice = experiment: In vivo efficacy study, DSS-induced colitis model; parameters: species or system male BALB/c mice; conditions: for DAI score (Fig. 6b) / Body weight (Fig. 6a): Compound 3 5 mg/kg, individual mice
[2] = 3.5% DSS colitis mice, compound 3 5 mg/kg, Fedratinib 10 mg/kg, intragastric, day 8 to day 14

Structure (SMILES): Cc1cnc2nc1Nc1cccc(c1)COCC=CCOCc1cc(ccc1OCCN1CCCC1)N2 [Compound 3]
- Inhibition (%) (HEL cells; HEL cell lines, 0.0977 μM): 7.532% and 3.479% and 4.355% and 9.373% and 0.491% and 6.308%
- Inhibition (%) (HEL cells; HEL cell lines, 0.1953 μM): 13.777% and 7.751% and 6.875% and 6.544% and 1.513% and 5.600%
- Inhibition (%) (HEL cells; HEL cell lines, 0.3906 μM): 19.145% and 12.682% and 3.259% and 5.522% and 6.779% and 5.600%
- Inhibition (%) (HEL cells; HEL cell lines, 0.7813 μM): 21.994% and 15.749% and 13.120% and 10.788% and 3.085% and 13.618%
- Inhibition (%) (HEL cells; HEL cell lines, 1.5625 μM): 37.004% and 30.321% and 23.090% and 24.936% and 24.700% and 25.722%
- Inhibition (%) (HEL cells; HEL cell lines, 3.1250 μM, 3.125 µM): 60.340% and 50.260% and 45.440% and 49.460% and 46.787% and 48.123%
- Inhibition (%) (HEL cells; HEL cell lines, 6.2500 μM, 6.25 µM): 81.375% and 75.240% and 74.473% and 74.140% and 73.276% and 76.577%
- Inhibition (%) (HEL cells; HEL cell lines, 12.5000 μM, 12.5 µM): 87.949% and 81.375% and 82.142% and 84.437% and 81.607% and 79.564%
- IC50 (HEL cells; HEL cell lines, mean of 2 replicates, read-out: IC50/μM mean, cellular antiproliferative activity): 3.05 µM
- IC50 (HEL cells; HEL cell lines, single-replicate fits, read-out: IC50/μM (individual replicates), cellular antiproliferative activity): 3.33 µM and 2.78 µM
- IC50 (HEL cells; HEL cells, 72 h, mean ± SD, read-out: Cellular Antiproliferative Activity (IC50) HEL): 3.06 ± 0.39 µM
- Inhibition (%) (SET-2 cells; SET-2 cell lines, C 0.0977 μM, single wells of replicate 1 and replicate 2): -27.9889% and -18.4466% and -28.7656% and 0.261% and 11.375% and 10.333%
- Inhibition (%) (SET-2 cells; SET-2 cell lines, C 0.1953 μM, single wells of replicate 1 and replicate 2): -32.7601% and -23.4397% and -24.3273% and 16.816% and 17.164% and 5.470%
- Inhibition (%) (SET-2 cells; SET-2 cell lines, C 0.3906 μM, single wells of replicate 1 and replicate 2): -24.5492% and -19.4452% and -33.2039% and 12.880% and 13.806% and 4.892%
- Inhibition (%) (SET-2 cells; SET-2 cell lines, C 0.7813 μM, single wells of replicate 1 and replicate 2): -42.4133% and -41.7476% and -46.4078% and 9.291% and 13.806% and 8.828%
- Inhibition (%) (SET-2 cells; SET-2 cell lines, C 1.5625 μM, single wells of replicate 1 and replicate 2): -43.4119% and -41.8585% and -40.6380% and 14.617% and 26.541% and 23.994%
- Inhibition (%) (SET-2 cells; SET-2 cell lines, C 3.1250 μM, single wells of replicate 1 and replicate 2): -19.0014% and -10.7906% and -7.5728% and 27.931% and 19.711% and 22.952%
- Inhibition (%) (SET-2 cells; SET-2 cell lines, 6.2500 μM, single wells, replicates 1 and 2, 6.25 µM): 17.1706% and 27.3786% and 29.5978% and 31.635% and 25.499% and 11.259%
- Inhibition (%) (SET-2 cells; SET-2 cell lines, 12.5000 μM, single wells, replicates 1 and 2, 12.5 µM): 59.6671% and 60.0000% and 61.2205% and 43.097% and 40.782% and 34.993%
- IC50 (SET-2 cells; SET-2 cell lines, mean of 2 replicates, read-out: IC50/μM mean, cellular antiproliferative activity): 11.1 µM
- IC50 (SET-2 cells; SET-2 cell lines, mean ± sd of 2 replicates, read-out: IC50/μM mean ± sd, cellular antiproliferative activity): 11.1 ± 0.13 µM
- IC50 (SET-2 cells; SET-2 cell lines, single-replicate fits, read-out: IC50/μM (individual replicates), cellular antiproliferative activity): 11 µM and 11.2 µM
- IC50 (SET-2 cells; SET-2 cells, 72 h, mean ± SD, read-out: Cellular Antiproliferative Activity (IC50) SET-2): 11.1 ± 0.13 µM
- activation of downstream signaling molecule STAT3 and STAT5 [1]: significantly inhibited
- phosphorylation of JAK2 at Y1007/8 site [1]: increased
- phosphorylation of JAK2 at Y221 site ([1]; dose-dependent): efficiently blocked
- histological scores (H&E, Ameho criteria) (DSS-induced colitis mice; 3.5% DSS colitis mice, compound 3 5 mg/kg, Fedratinib 10 mg/kg): lower
- body weight change (DSS-induced colitis mice; [2]): alleviate the decrease of body weight
- disease activity index (DAI) scores (DSS-induced colitis mice; [2]): significantly decreased
- ratio of colon weight to length (DSS-induced colitis mice; 3.5% DSS colitis mice, compound 3 5 mg/kg, Fedratinib 10 mg/kg, compared to the model group): decreased
- DAI score (Fig. 6b) (DSS-induced colitis mice; day 0): 0
- Body weight (Fig. 6a) (DSS-induced colitis mice; day 0, 5 mg/kg): 21.4 and 20.3 and 22.6 and 21.9 (2×) and 23.4 and 23.9 and 21.5
- DAI score (Fig. 6b) (DSS-induced colitis mice; day 1, 5 mg/kg): 0 (7×) and 1
- Body weight (Fig. 6a) (DSS-induced colitis mice; day 1, 5 mg/kg, in g (unit assumed)): 22.2 and 21 and 23.1 and 22.4 and 23.5 and 21.4 and 24.6 and 22.7
- DAI score (Fig. 6b) (DSS-induced colitis mice; day 2, 5 mg/kg): 2 and 0 (5×) and 1 (2×)
- Body weight (Fig. 6a) (DSS-induced colitis mice; day 2, 5 mg/kg, in g (unit assumed)): 21.8 and 22.8 and 22.4
- DAI score (Fig. 6b) (DSS-induced colitis mice; day 3, 5 mg/kg): 0 (5×) and 2 (3×)
- DAI score (Fig. 6b) (DSS-induced colitis mice; day 4, 5 mg/kg): 2 (4×) and 0 and 1 (2×) and 3
- Body weight (Fig. 6a) (DSS-induced colitis mice; day 4, 5 mg/kg, in g (unit assumed)): 23.2 and 19.6 and 22.9 and 22.3 and 22.4 and 22 and 21.1 and 22.5
- DAI score (Fig. 6b) (DSS-induced colitis mice; day 5, 5 mg/kg): 3 (2×) and 5 and 1 (3×) and 6 and 2
